Results: patent US9326973B2, “Hepatitis C virus inhibitors” (priority 2012, dated 2016)

system: HCV replicon, genotype-1a variant with glutamine 30 changed to glutamate in the NS5A protein; test: microbe, parasite or virus in culture; type: cell-based, HCV genotype 1a; settings: HCV replicon genotype 1a Q30E (Q→E) variant; test compound titrated with an NS5A-targeting compound (BMS-790052 fixed at 200 nM); ranking of synergist activity
Procedure, shortened: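 Synergy was assessed by combining several fixed amounts of an NS5A-targeting compound with a titration of the second compound of interest.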

SMILES | Fold-Synergistic 1a (Q30E) [fold]
Cn1cccc1C(=O)N1CCC[C@H]1c1ncc(-c2ccc(-c3ccc(-c4cnc([C@@H]5CCCN5C(=O)c5cccn5C)[nH]4)cc3)cc2)[nH]1 [Compound S-175] | <10
CC(C)[C@H](NC(=O)[C@@H]1C[C@H](O)CN1C(=O)OC(C)(C)C)c1nc(-c2ccc(-c3ccc(-c4c[nH]c([C@@H](NC(=O)[C@@H]5C[C@H](O)CN5C(=O)OC(C)(C)C)C(C)C)n4)cc3)cc2)c[nH]1 [Compound W-100] | >100
CC(C)CC(=O)NC(C)(C)c1nc(-c2ccc(-c3ccc(-c4c[nH]c(C(C)(C)NC(=O)CC(C)C)n4)cc3)cc2)c[nH]1 [Compound N-26] | <10
COC1CCN(C(=O)C(C)(C)C(=O)N[C@H](c2nc(-c3ccc(-c4ccc(-c5c[nH]c([C@@H](NC(=O)C(C)(C)C(=O)N6CCC(OC)CC6)C(C)(C)C)n5)cc4)cc3)c[nH]2)C(C)(C)C)CC1 [Compound W-143] | >100
CC(C)(C)[C@H](NC(=O)C(=O)c1ccco1)c1nc(-c2ccc(-c3ccc(-c4c[nH]c([C@@H](NC(=O)C(=O)c5ccco5)C(C)(C)C)n4)cc3)cc2)c[nH]1 [Compound W-20] | >100
COC(=O)N[C@H](C(=O)N[C@H](c1nc(-c2ccc(-c3ccc(-c4c[nH]c([C@@H](NC(=O)[C@@H](NC(=O)OC)C(C)C)C(C)(C)C)n4)cc3)cc2)c[nH]1)C(C)(C)C)C(C)C [Compound N-35] | >100
CC(C)(C)[C@H](NC(=O)C1CC2(C1)OCCO2)c1nc(-c2ccc(-c3ccc(-c4c[nH]c([C@@H](NC(=O)C5CC6(C5)OCCO6)C(C)(C)C)n4)cc3)cc2)c[nH]1 (some centres unmarked) [Compound W-178] | >100
CC(C)CC(=O)N[C@@H](C)c1nc(-c2ccc(-c3ccc(-c4c[nH]c([C@H](C)NC(=O)CC(C)C)n4)cc3)cc2)c[nH]1 [Compound N-39] | >10
CC(C)(C)[C@H](NC(=O)C1(C)OCCCC1(F)F)c1nc(-c2ccc(-c3ccc(-c4c[nH]c([C@@H](NC(=O)C5(C)OCCCC5(F)F)C(C)(C)C)n4)cc3)cc2)c[nH]1 (some centres unmarked) [Compound P-162] | >100
CN(C(=O)C(=O)N[C@H](c1nc(-c2ccc(-c3ccc(-c4c[nH]c([C@@H](NC(=O)C(=O)N(C)C5CC5)C(C)(C)C)n4)cc3)cc2)c[nH]1)C(C)(C)C)C1CC1 [Compound W-50] | >100
CC(C)(C)[C@H](NC(=O)C1CCCCS1)c1nc(-c2ccc(-c3ccc(-c4c[nH]c([C@@H](NC(=O)C5CCCCS5)C(C)(C)C)n4)cc3)cc2)c[nH]1 (some centres unmarked) [Compound P-173] | >100
Cc1cc(C(=O)N2CCC[C@H]2c2ncc(-c3ccc(-c4ccc(-c5cnc([C@@H]6CCCN6C(=O)c6cc(C)nc(Cl)c6)[nH]5)cc4)cc3)[nH]2)cc(Cl)n1 [Compound S-131] | >10
C[C@@H]1CN(C(=O)C(=O)N[C@H](c2nc(-c3ccc(-c4ccc(-c5c[nH]c([C@@H](NC(=O)C(=O)N6C[C@@H](C)O[C@@H](C)C6)C6(C)CC6)n5)cc4)cc3)c[nH]2)C2(C)CC2)C[C@H](C)O1 [Compound W-61] | >100
O=C(CC(F)(F)F)N1CCC[C@H]1c1ncc(-c2ccc(-c3ccc(-c4cnc([C@@H]5CCCN5C(=O)CC(F)(F)F)[nH]4)cc3)cc2)[nH]1 [Compound S-193] | <10
CC(C)[C@H](NC(=O)[C@@]1(C)CC(F)(F)CO1)c1nc(-c2ccc(-c3ccc(-c4c[nH]c([C@@H](NC(=O)[C@@]5(C)CC(F)(F)CO5)C(C)C)n4)cc3)cc2)c[nH]1 [Compound Y-80] | >100
CC(C)(C)[C@H](NC(=O)[C@H]1CC[C@@](C)(O)CC1)c1nc(-c2ccc(-c3ccc(-c4c[nH]c([C@@H](NC(=O)[C@H]5CC[C@@](C)(O)CC5)C(C)(C)C)n4)cc3)cc2)c[nH]1 [Compound W-175] | >100
CC(C)(NC1CCCCC1)C(=O)N[C@H](c1nc(-c2ccc(-c3ccc(-c4c[nH]c([C@@H](NC(=O)C(C)(C)NC5CCCCC5)C(C)(C)C)n4)cc3)cc2)c[nH]1)C(C)(C)C [Compound P-174] | >100
